Data reported in PMC5839718 (The Journal of General Physiology, 2018).
Values joined by “and” are separate entries in the source; they are usually repeats but may differ in a detail not shown here. Equal values may be shown once. Read-outs that look alike come from different tables or passages of the source. Values belong to the molecule of their own block, whether it stands above or below them.

Columns and labels:
[1] = biological target: α4β2 nAChR from β-6-α-9-β-6-α and α4^VFL (1:25) (Homo sapiens, UniProt P17787+P43681, H142V/Q150F/T152L); assay: two-electrode voltage-clamp, oocytes, β-6-α-9-β-6-α and α4^VFL 1:25; assay type: cell-based; settings: β-6-α-9-β-6-α + α4^VFL 1:25; biphasic fit
α4β2 nAChR from β-6-α-9-β-6-α and α4^VFL (1:25), sequence (P17787 26-502): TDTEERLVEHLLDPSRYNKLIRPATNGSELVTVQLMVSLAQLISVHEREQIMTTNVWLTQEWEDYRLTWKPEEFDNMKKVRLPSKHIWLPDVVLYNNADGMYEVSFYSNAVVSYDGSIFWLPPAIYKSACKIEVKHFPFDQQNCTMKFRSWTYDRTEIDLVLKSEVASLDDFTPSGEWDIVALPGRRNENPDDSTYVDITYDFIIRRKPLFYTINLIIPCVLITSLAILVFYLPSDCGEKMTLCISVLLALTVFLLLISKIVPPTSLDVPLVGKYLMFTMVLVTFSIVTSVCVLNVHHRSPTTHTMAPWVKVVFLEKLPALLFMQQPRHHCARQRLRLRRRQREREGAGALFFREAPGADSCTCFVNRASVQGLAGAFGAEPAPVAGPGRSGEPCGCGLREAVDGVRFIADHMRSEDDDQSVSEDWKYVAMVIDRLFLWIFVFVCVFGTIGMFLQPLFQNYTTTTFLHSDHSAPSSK
α4β2 nAChR from β-6-α-9-β-6-α and α4^VFL (1:25), sequence (P43681 27-627, stated change not applied): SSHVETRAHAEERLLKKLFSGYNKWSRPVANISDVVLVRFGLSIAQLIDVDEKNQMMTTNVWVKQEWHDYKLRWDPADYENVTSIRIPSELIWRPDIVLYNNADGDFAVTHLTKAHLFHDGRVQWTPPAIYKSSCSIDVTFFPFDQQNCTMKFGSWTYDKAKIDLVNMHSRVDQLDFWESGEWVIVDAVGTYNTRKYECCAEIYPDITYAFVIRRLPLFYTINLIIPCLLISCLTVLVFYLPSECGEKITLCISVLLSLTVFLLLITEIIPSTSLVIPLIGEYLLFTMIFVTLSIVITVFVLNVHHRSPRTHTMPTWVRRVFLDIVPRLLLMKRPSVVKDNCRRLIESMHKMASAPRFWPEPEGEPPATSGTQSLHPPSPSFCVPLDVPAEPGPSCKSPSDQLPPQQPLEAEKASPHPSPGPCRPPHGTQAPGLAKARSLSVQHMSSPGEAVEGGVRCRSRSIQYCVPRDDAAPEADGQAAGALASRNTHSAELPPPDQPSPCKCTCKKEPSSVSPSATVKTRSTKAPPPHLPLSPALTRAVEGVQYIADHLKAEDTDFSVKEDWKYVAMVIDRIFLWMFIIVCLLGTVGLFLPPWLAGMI
α4β2 nAChR from β-6-α-9-β-6-α and α4^VFL (1:25), sequence (P17787 26-502): as the sequence (P17787 26-502) above
α4β2 nAChR from β-6-α-9-β-6-α and α4^VFL (1:25), sequence (P43681 27-627, stated change not applied): as the sequence (P43681 27-627, stated change not applied) above
α4β2 nAChR from β-6-α-9-β-6-α and α4^VFL (1:25), sequence (P43681 34-627 H142V/Q150F/T152L limits assumed): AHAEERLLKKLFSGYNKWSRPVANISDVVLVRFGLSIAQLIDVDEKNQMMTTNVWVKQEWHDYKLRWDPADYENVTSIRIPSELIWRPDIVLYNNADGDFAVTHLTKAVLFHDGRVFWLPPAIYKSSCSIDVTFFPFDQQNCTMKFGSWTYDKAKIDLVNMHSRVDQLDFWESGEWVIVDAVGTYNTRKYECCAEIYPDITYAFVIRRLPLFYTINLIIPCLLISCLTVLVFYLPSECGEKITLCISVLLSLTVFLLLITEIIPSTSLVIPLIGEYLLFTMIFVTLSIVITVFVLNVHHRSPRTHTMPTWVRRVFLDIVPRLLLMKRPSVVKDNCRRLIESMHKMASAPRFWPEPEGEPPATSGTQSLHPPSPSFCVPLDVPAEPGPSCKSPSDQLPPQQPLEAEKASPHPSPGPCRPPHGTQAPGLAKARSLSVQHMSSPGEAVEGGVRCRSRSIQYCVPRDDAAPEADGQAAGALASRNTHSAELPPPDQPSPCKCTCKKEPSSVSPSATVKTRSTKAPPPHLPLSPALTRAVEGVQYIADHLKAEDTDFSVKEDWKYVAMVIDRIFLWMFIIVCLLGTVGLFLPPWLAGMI

[2] = biological target: α4β2 nAChR from β-6a-α and α4 (1:1) (Homo sapiens, UniProt P17787+P43681); assay: two-electrode voltage-clamp, oocytes, β-6a-α and α4; assay type: cell-based; settings: β-6a-α + α4; biphasic fit
[3] = biological target: α4β2 nAChR from β-3a-α and α4 (1:1) (Homo sapiens, UniProt P17787+P43681); assay: two-electrode voltage-clamp, oocytes, β-3a-α and α4; assay type: cell-based; settings: β-3a-α + α4; biphasic fit
[4] = biological target: α4β2 nAChR from β-0a-α and α4 (1:1) (Homo sapiens, UniProt P17787+P43681); assay: two-electrode voltage-clamp, oocytes, β-0a-α and α4; assay type: cell-based; settings: β-0a-α + α4; biphasic fit
[5] = biological target: α4β2 nAChR from β-6-α-9-β-6-α alone (Homo sapiens, UniProt P17787+P43681); assay: two-electrode voltage-clamp, oocytes, tetrameric β-6-α-9-β-6-α alone; assay type: cell-based
α4β2 nAChR from β-6-α-9-β-6-α alone, sequence (P43681 27-627): as the sequence (P43681 27-627, stated change not applied) above
α4β2 nAChR from β-6-α-9-β-6-α alone, sequence (P17787 26-502): as the sequence (P17787 26-502) above

[6] = biological target: α4β2 nAChR from β-3a-α alone (Homo sapiens, UniProt P17787+P43681); assay: two-electrode voltage-clamp, oocytes, β-3a-α alone; assay type: cell-based
[7] = biological target: α4β2 nAChR from β-6-α-9-β-6-α and α4^VFL (1:1) (Homo sapiens, UniProt P17787+P43681, H142V/Q150F/T152L); assay: two-electrode voltage-clamp, oocytes, β-6-α-9-β-6-α and α4^VFL 1:1; assay type: cell-based
α4β2 nAChR from β-6-α-9-β-6-α and α4^VFL (1:1), sequence (P17787 26-502): as above
α4β2 nAChR from β-6-α-9-β-6-α and α4^VFL (1:1), sequence (P43681 27-627, stated change not applied): as the sequence (P43681 27-627, stated change not applied) above
α4β2 nAChR from β-6-α-9-β-6-α and α4^VFL (1:1), sequence (P43681 27-627 H142V/Q150F/T152L): as the sequence (P43681 27-627, stated change not applied) above, with H116V, Q124F, T126L counted along it

[8] = biological target: α4β2 nAChR from β-6-α and α4^VFL (1:25) (Homo sapiens, UniProt P17787+P43681, H142V/Q150F/T152L); assay: two-electrode voltage-clamp, oocytes, β-6-α and α4^VFL 1:25; assay type: cell-based; settings: β-6-α + α4^VFL 1:25; biphasic fit
[9] = biological target: α4β2 nAChR from β-6-α-9-β-6-α and α4 (1:1) (Homo sapiens, UniProt P17787+P43681); assay: two-electrode voltage-clamp, oocytes, β-6-α-9-β-6-α and α4; assay type: cell-based; settings: β-6-α-9-β-6-α + α4
[10] = biological target: α4β2 nAChR from β-21a-α^VFL-α-β-α (Homo sapiens, UniProt P17787+P43681, H142V/Q150F/T152L); assay: two-electrode voltage-clamp, oocytes, pentameric β-21a-α^VFL-α-β-α; assay type: cell-based
α4β2 nAChR from β-21a-α^VFL-α-β-α, sequence (P17787 26-502): as the sequence (P17787 26-502) above
α4β2 nAChR from β-21a-α^VFL-α-β-α, sequence (P43681 27-627 H142V/Q150F/T152L): as the sequence (P43681 27-627, stated change not applied) above, with H116V, Q124F, T126L counted along it
α4β2 nAChR from β-21a-α^VFL-α-β-α, sequence (P43681 27-627, stated change not applied): as the sequence (P43681 27-627, stated change not applied) above
α4β2 nAChR from β-21a-α^VFL-α-β-α, sequence (P17787 26-502): as the sequence (P17787 26-502) above
α4β2 nAChR from β-21a-α^VFL-α-β-α, sequence (P43681 27-627, stated change not applied): as the sequence (P43681 27-627, stated change not applied) above

[11] = tested on: (α4)2(β2)3 nAChR from α4 and β2 (1:4); settings: 10 µM ACh, ref Timmermann et al. (2012); cited from earlier work
[12] = biological target: Ls-AChBP; settings: read-out: NS9283 Ki at Ls-AChBP; ref Olsen et al., 2014; cited from earlier work

ACh Frac (first component fraction) [1]: 0.40 ± 0.12
ACh Frac (first component fraction) [2]: 0.059 ± 0.018
ACh Frac (first component fraction) [3]: 0.11 ± 0.02
ACh Frac (first component fraction) [4]: 0.053 ± 0.028
Emax ([5]; read-out: ACh Emax): 109 ± 5%
ACh Frac (first component fraction) ([5]; β-6-α-9-β-6-α alone, biphasic fit): 0.45 and 0.45 ± 0.07
Emax ([6]; read-out: ACh Emax): 103 ± 1%
ACh Frac (first component fraction) ([6]; β-3a-α alone, biphasic fit): 0.64 ± 0.11
ACh Frac (first component fraction) ([7]; β-6-α-9-β-6-α + α4^VFL 1:1, biphasic fit): 0.41 ± 0.09
ACh Frac (first component fraction) [8]: 0.39 ± 0.05
mean AChmax-evoked currents [9]: 1–2 μA
ACh Frac (first component fraction) ([9]; biphasic fit): 0.035 ± 0.020
Emax ([10]; read-out: ACh Emax): 104 ± 1%
ACh Frac (first component fraction) ([10]; β-21a-α^VFL-α-β-α, biphasic fit): 0.44 ± 0.1
SMILES: CC(=O)OCC[N+](C)(C)C [ACh, acetylcholine]

EC50 [5]: 10 µM
Emax ([5]; read-out: NS9283 Emax): 220 ± 30%
NS9283 E31.6 µM ([5]; β-6-α-9-β-6-α alone, […] NS9283 + 10 µM ACh, % change from AChcontrol current): 170 ± 20%
EC50 ([7]; NS9283 pEC50, β-6-α-9-β-6-α + α4^VFL 1:1, coapplied with 10 µM ACh): 10 µM
EC50 [10]: 6.31 µM
Emax ([10]; read-out: NS9283 Emax): 102 ± 10%
NS9283 E31.6 µM ([10]; β-21a-α^VFL-α-β-α, […] NS9283 + 10 µM ACh, % change from AChcontrol current): 85 ± 10%
SMILES: N#Cc1cccc(-c2nc(-c3cccnc3)no2)c1 [NS9283, 3-(3-(pyridine-3-yl)-1,2,4-oxadiazol-5-yl)benzonitrile]
NS9283 effect on AChcontrol-evoked current amplitudes at […] or higher [11]: inhibition
Ki [12]: 67 µM
